Assay results: BindingDB's records for patent US11787810 (Merck Sharp & Dohme, 2023)

molecular target: T1, Diacylglycerol O-acyltransferase 2 (Homo sapiens, UniProt Q96PD7); assay: DGAT2 Enzymatic Activity Assay
T1 sequence (Q96PD7 whole entry): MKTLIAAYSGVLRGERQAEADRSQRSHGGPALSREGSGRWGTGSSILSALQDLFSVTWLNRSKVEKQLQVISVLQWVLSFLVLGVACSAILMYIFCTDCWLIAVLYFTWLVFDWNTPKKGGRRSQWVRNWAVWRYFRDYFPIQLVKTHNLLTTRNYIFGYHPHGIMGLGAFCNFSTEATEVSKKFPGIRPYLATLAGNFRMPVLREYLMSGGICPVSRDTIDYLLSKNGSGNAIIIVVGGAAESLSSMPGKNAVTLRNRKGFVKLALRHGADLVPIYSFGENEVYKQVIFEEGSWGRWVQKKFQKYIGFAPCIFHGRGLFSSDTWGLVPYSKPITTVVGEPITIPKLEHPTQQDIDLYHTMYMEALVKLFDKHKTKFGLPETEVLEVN
Method: DGAT2 activity was determined by measuring the amount of enzymatic product 13C18-triolein (13C-1,2,3-Tri(cis-9-octadecenoyl)glycerol) using the membrane prep mentioned above. The assay was carried out in ABgene 384-well assay plates in a final volume of 25 μL at rt. The assay mixture contained the following: assay buffer (100 mM Tris Cl, pH 7.0, 20 mM MgCl2, 5% ethanol), 25 μM of diolein, 5 μM of 13C oleoyl-CoA and 8 ng/μL of DGAT2 membrane.

IC50 [µM] | SMILES
0.0043 | CC(C)n1nc(-c2cccc(OC(F)F)c2)c2ncc(C(=O)NC3(C)CCS(=O)(=O)CC3)cc21 [US11787810, Example 32]
0.142 | CC(C)n1nc(-c2cccc(OCC#N)c2)c2ncc(C(=O)NC3(C)CS(=O)(=O)C3)cc21 [US11787810, Example 103]
7.94 | CC(=O)N1CC(n2nc(-c3cccc(OC(F)F)c3)c3ncc(C(=O)NC4(C)CS(=O)(=O)C4)cc32)C1 [US11787810, Example 135]
